Test results taken from patent US11866450B2, “Modulators of Cystic Fibrosis Transmembrane Conductance regulator, pharmaceutical compositions, methods of treatment, and process for making the modulators” (priority 2018, dated 2024).

Target: CFTR-mediated chloride transport (Homo sapiens, UniProt P13569)
Format: cell-based
Conditions: enteroid cells incubated with test compound 18-24 hours, acute 10 μM forskolin and 300 nM Compound III; for Max. Activity: % of chloride transport with 3 μM Compound A, 3 μM Compound II and 300 nM acute Compound III triple combination control
Experimental: Base medium (ADF+++) consisted of Advanced DMEM/Ham's F12, 2 mM Glutamax, 10 mM HEPES, […] penicillin/streptomycin.
Intestinal enteroid maintenance medium (IEMM) consisted of ADF+++, 1× B27 supplement, 1× N2 supplement, 1.25 mM N-acetyl cysteine, 10 mM Nicotinamide, 50 ng/mL hEGF, 10 nM Gastrin, 1 μg/mL hR-spondin-1, 100 ng/mL hNoggin, TGF-b type 1 inhibitor A-83-01, 100 μg/mL Primocin, 10 μM P38 MAPK inhibitor SB202190.
Bath 1 Buffer consisted of 1 mM MgCl2, 160 mM NaCl, 4.5 mM KCl, 10 mM HEPES, 10 mM Glucose, 2 mM CaCl2).
Chloride Free Buffer consisted of 1 mM Magnesium Gluconate, 2 mM Calcium Gluconate, 4.5 mM Potassium Gluconate, 160 mM Sodium Gluconate, 10 mM HEPES, 10 mM Glucose.
Bath1 Dye Solution consisted of Bath 1 Buffer, 0.04% Pluronic F127, 20 μM Methyl Oxonol, 30 μM CaCCinh-A01, 30 μM Chicago Sky Blue.
Chloride Free Dye Solution consisted of Chloride Free Buffer, 0.04% Pluronic F127, 20 μM Methyl Oxonol, 30 μM CaCCinh-A01, 30 μM Chicago Sky Blue.
Chloride Free Dye Stimulation Solution consisted of Chloride Free Dye Solution, 10 μM forskolin, 100 μM IBMX, and 300 nM Compound III.
Human intestinal epithelial enteroid cells were obtained from the Hubrecht Institute for Developmental Biology and Stem Cell Research, Utrecht, The Netherlands and expanded in T-Flasks as previously described (Dekkers J F, Wiegerinck C L, de Jonge H R, Bronsveld I, Janssens H M, de Winter-de Groot K M, Brandsma A M, de Jong N W M, Bijvelds M J C, Scholte B J, Nieuwenhuis E E S, van den Brink S, Clevers H, van der Ent C K, Middendorp S and M Beekman J M. A functional CFTR assay using primary cystic fibrosis intestinal organoids. Nat Med. 2013 July; 19(7):939-45).
Cells were recovered in cell recovery solution, collected by centrifugation at 650 rpm for 5 min at 4° C., resuspended in TryPLE and incubated for 5 min at 37° C. Cells were then collected by centrifugation at 650 rpm for 5 min at 4° C. and resuspended in IEMM containing 10 μM ROCK inhibitor (RI) (trans-4-[(1R)-1-aminoethyl]-N-4-pyridinylcyclohexanecarboxamide). The cell suspension was passed through a 40 μm cell strainer and resuspended at 1×10^6 cells/mL in IEMM containing 10 μM RI. Cells were seeded at 5000 cells/well into multi-well plates and incubated for overnight at 37° C., 95% humidity and 5% CO2 prior to assay.
Enteroid cells were incubated with test compound in IEMM for 18-24 hours at 37° C., 95% humidity and 5% CO2. Following compound incubations, a membrane potential dye assay was employed using a FLIPR Tetra to directly measure the potency and efficacy of the test compound on CFTR-mediated chloride transport following acute addition of 10 μM forskolin and 300 nM Compound III. Briefly, cells were washed 5 times in Bath 1 Buffer. Bath 1 Dye Solution was added and the cells were incubated for 25 min at room temperature. Following dye incubation, cells were washed 3 times in Chloride Free Dye Solution. Chloride transport was initiated by addition of Chloride Free Dye Stimulation Solution and the fluorescence signal was read for 15 min. The CFTR-mediated chloride transport for each condition was determined from the AUC of the fluorescence response to acute forskolin and 300 nM Compound III stimulation. Chloride transport was then expressed as a percentage of the chloride transport following treatment with 3 μM Compound A, 3 μM Compound II and 300 nM acute Compound III triple combination control (% Activity).

Sequence of CFTR-mediated chloride transport (P13569 whole entry, looked up): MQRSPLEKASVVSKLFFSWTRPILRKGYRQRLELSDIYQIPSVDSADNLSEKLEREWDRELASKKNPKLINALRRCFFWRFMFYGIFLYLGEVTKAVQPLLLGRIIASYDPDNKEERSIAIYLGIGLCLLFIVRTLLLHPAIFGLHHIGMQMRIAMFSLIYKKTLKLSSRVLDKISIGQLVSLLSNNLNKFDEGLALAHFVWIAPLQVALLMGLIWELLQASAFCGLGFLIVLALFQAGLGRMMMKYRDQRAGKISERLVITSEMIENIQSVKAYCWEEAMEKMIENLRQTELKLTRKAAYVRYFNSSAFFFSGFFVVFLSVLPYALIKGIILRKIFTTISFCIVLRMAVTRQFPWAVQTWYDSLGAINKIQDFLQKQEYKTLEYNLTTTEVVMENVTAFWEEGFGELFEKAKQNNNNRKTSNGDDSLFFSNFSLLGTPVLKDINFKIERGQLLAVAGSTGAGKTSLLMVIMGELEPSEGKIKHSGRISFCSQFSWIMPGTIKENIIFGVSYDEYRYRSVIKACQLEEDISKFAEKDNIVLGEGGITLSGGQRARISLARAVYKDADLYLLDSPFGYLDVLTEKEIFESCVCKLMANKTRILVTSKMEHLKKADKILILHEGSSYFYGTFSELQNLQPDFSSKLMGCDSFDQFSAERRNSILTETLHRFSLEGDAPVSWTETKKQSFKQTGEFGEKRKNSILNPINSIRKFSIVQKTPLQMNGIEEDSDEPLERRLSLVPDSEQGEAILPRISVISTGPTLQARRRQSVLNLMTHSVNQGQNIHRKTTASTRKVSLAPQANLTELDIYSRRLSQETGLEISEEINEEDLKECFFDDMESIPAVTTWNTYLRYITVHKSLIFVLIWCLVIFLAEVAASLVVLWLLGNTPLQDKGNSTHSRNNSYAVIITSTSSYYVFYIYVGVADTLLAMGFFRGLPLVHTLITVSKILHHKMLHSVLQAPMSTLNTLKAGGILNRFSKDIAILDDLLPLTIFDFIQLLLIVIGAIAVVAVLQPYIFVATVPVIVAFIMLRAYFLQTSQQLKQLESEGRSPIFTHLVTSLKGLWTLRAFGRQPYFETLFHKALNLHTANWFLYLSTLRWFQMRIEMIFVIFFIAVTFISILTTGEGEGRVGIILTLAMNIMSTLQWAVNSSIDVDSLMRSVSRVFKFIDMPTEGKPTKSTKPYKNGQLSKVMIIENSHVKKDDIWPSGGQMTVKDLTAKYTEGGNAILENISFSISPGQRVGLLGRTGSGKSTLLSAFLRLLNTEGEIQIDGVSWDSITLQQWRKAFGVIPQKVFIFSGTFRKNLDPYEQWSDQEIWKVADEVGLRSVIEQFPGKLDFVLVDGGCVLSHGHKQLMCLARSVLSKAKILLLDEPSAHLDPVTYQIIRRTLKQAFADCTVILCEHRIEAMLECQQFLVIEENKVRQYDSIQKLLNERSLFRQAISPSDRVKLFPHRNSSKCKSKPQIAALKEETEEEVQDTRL

| SMILES | EC50 | Max. Activity |
| --- | --- | --- |
| CC1(C)C[C@H]2CCCNc3cccc(n3)S(=N)(=O)NC(=O)c3ccc(-n4ccc(OCCC5(C(F)(F)F)CC5)n4)nc3N1C2 (single isomer, unassigned) [Compound 271, 2-Imino-12,12-dimethyl-8-(3-{2-[1-(trifluoromethyl)cyclopropyl]ethoxy}-1H-pyrazol-1-yl)-2λ^6-thia-3,9,11,18,23-pentaazatetracyclo[17.3.1.111,14.05,10]tetracosa-1(23),5,7,9,19,21-hexaene-2,4-dione] | < 1000 nM | +++ (+++ is >60%) |
| CC1(C)C[C@@H]2CCCNc3cccc(n3)S(=O)(=O)NC(=O)c3ccc(N4CC[C@H](OCCC5(C(F)(F)F)CC5)C4=O)nc3N1C2 (single isomer, unassigned) [Compound 172] | < 1000 nM | ++ (++ is 30-60%) |
| CC(C)C(COc1ccn(-c2ccc3c(n2)N2C[C@@H](CC2(C)C)OCCNc2cccc(n2)S(=O)(=O)NC3=O)n1)C(C)C (single isomer, unassigned) [Compound 248, 12,12-dimethyl-8-{3-[3-methyl-2-(propan-2-yl)butoxy]-1H-pyrazol-1-yl}-15-oxa-2λ^6-thia-3,9,11,18,23-pentaazatetracyclo[17.3.1.111,14.05,10]tetracosa-1(23),5(10),6,8,19,21-hexaene-2,2,4-trione] | < 1000 nM | ++ (++ is 30-60%) |
| CC1(C)C[C@@H]2CCCNc3cc(O)cc(n3)S(=O)(=O)NC(=O)c3ccc(-n4ccc(OCCC5C6(CC6)C56CC6)n4)nc3N1C2 [Compound 264, (14S)-8-[3-(2-{Dispiro[2.0.2.1]heptan-7-yl}ethoxy)-1H-pyrazol-1-yl]-21-hydroxy-12,12-dimethyl-2λ^6-thia-3,9,11,18,23-pentaazatetracyclo[17.3.1.111,14.05,10]tetracosa-1(23),5,7,9,19,21-hexaene-2,2,4-trione] | < 1000 nM | +++ (+++ is >60%) |
| CC1(C)C[C@H]2CCCn3ccc(n3)S(=O)(=O)NC(=O)c3ccc(-n4ccc(OCCC5C6(CC6)C56CC6)n4)nc3N1C2 [Compound 186, (18R)-4-[3-(2-{dispiro[2.0.2.1]heptan-7-yl}ethoxy)-1H-pyrazol-1-yl]-20,20-dimethyl-10λ^6-thia-1,3,9,14,22-pentaazatetracyclo[16.2.1.111,14.02,7]docosa-2,4,6,11(22),12-pentaene-8,10,10-trione] | < 1000 nM | + (+ is <30%) |
| CC1(C)C[C@H]2CCCCOc3ccc(cc3)S(=O)(=O)NC(=O)c3ccc(-n4ccc(OCCC5(C(F)(F)F)CC5)n4)nc3N1C2 (single isomer, unassigned) [Compound 95, 12,12-dimethyl-8-(3-{2-[1-(trifluoromethyl)cyclopropyl]ethoxy}-1H-pyrazol-1-yl)-19-oxa-2λ^6-thia-3,9,11-triazatetracyclo[18.2.2.111,14.05,10]pentacosa-1(22),5,7,9,20,23-hexaene-2,2,4-trione] | < 1000 nM | ++ (++ is 30-60%) |
| CC1(C)C[C@H]2CCNc3cccc(n3)S(=O)(=O)NC(=O)c3ccc(-n4ccc(OCCC5(C(F)(F)F)CC5)n4)nc3N1C2 (single isomer, unassigned) [Compound 27, 7,7-dimethyl-11-(3-{2-[1-(trifluoromethyl)cyclopropyl]ethoxy}-1H-pyrazol-1-yl)-17λ^6-thia-2,8,10,16,22-pentaazatetracyclo[16.3.1.15,8.09,14]tricosa-1(21),9,11,13,18(22),19-hexaene-15,17,17-trione] | < 1000 nM | +++ (+++ is >60%) |
| CC1(C)C[C@H]2CCCCNc3cccc(n3)S(=O)(=O)NC(=O)c3ccc(-n4ccc(OCCC5(C(F)(F)F)CC5)n4)nc3N1C2 (single isomer, unassigned) [Compound 30, 12,12-dimethyl-8-(3-{2-[1-(trifluoromethyl)cyclopropyl]ethoxy}-1H-pyrazol-1-yl)-2λ^6-thia-3,9,11,19,24-pentaazatetracyclo[18.3.1.111,14.05,10]pentacosa-1(23),5,7,9,20(24),21-hexaene-2,2,4-trione] | < 1000 nM | +++ (+++ is >60%) |
| Cc1ccc2nc1S(=O)(=O)NC(=O)c1ccc(-n3ccc(OCCC4(C(F)(F)F)CC4)n3)nc1N1C[C@H](CCCN2)CC1(C)C (single isomer, unassigned) [Compound 148, 12,12,22-trimethyl-8-(3-{2-[1-(trifluoromethyl)cyclopropyl]ethoxy}-1H-pyrazol-1-yl)-2λ^6-thia-3,9,11,18,23-pentaazatetracyclo[17.3.1.111,14.05,10]tetracosa-1(23),5(10),6,8,19,21-hexaene-2,2,4-trione] | > 3000 nM | + (+ is <30%) |
| CC1(C)C[C@@H]2CN1c1nc(-n3ccc(OCCC4(C(F)(F)F)CC4)n3)ccc1C(=O)NS(=O)(=O)c1cccc(n1)NCCO2 (single isomer, unassigned) [Compound 74, 12,12-Dimethyl-8-(3-{2-[1-(trifluoromethyl)cyclopropyl]ethoxy}-1H-pyrazol-1-yl)-15-oxa-2λ^6-thia-3,9,11,18,23-pentaazatetracyclo[17.3.1.111,14.05,10]tetracosa-1(22),5(10),6,8,19(23),20-hexaene-2,2,4-trione] | 1000 to 3000 nM | + (+ is <30%) |
| CC1(C)C[C@@H]2CCCNc3cccc(n3)S(=O)(=O)NC(=O)c3ccc(-n4ccc(OCC(O)C5C6(CC6)C56CC6)n4)nc3N1C2 (stereo partly drawn) [Compound 257, (14S)-8-[3-(2-{dispiro[2.0.2.1]heptan-7-yl}-2-hydroxyethoxy)-1H-pyrazol-1-yl]-12,12-dimethyl-2λ^6-thia-3,9,11,18,23-pentaazatetracyclo[17.3.1.111,14.05,10]tetracosa-1(22),5,7,9,19(23),20-hexaene-2,2,4-trione] | < 1000 nM | +++ (+++ is >60%) |
| Cc1c2cnn1CCC[C@@H]1CN(c3nc(-n4ccc(OCCC5(C(F)(F)F)CC5)n4)ccc3C(=O)NS2(=O)=O)C(C)(C)C1 (single isomer, unassigned) [Compound 111] | < 1000 nM | +++ (+++ is >60%) |
| CC1(C)C[C@@H]2CN1c1nc(-n3ccc(OCCC4(C(F)(F)F)CC4)n3)ccc1C(=O)NS(=O)(=O)c1ccn(n1)CCO2 (single isomer, unassigned) [Compound 302, 20,20-Dimethyl-4-(3-{2-[1-(trifluoromethyl)cyclopropyl]ethoxy}-1H-pyrazol-1-yl)-17-oxa-10λ^6-thia-1,3,9,14,22-pentaazatetracyclo[16.2.1.111,14.02,7]docosa-2(7),3,5,11(22),12-pentaene-8,10,10-trione] | > 3000 nM | + (+ is <30%) |
| CC1(C)CC[C@H]2CCCNc3cccc(n3)S(=O)(=O)NC(=O)c3ccc(-n4ccc(OCC5C6(CC6)C56CC6)n4)nc3N21 (single isomer, unassigned) [Compound 125, 8-[3-({Dispiro[2.0.2.1]heptan-7-yl}methoxy)-1H-pyrazol-1-yl]-12,12-dimethyl-2λ^6-thia-3,9,11,19,24-pentaazatetracyclo[18.3.1.05,10.011,15]tetracosa-1(23),5(10),6,8,20(24),21-hexaene-2,2,4-trione] | < 1000 nM | + (+ is <30%) |
